From US8765696B2, “Steroid compound” (Mikasa Seiyaku Co., Ltd., priority 2009, dated 2014)

What was measured:
[1] = tested on: croton oil-induced granuloma; assay: Test for croton oil-induced granuloma (air pouch exudate and thymus weight); assay type: in vivo, rat; conditions: male Wistar rats, 7 days, vs control group
Text: Using the croton oil granuloma test, which is a test method with which the local anti-inflammatory action and the systemic side effect can be evaluated at the same time, the pharmacological effect and the systemic side effect of the compounds of the present invention were studied.
Five individuals/group of male Wistar rats having body weights of 180 to 225 g were used, and hair on the back of these rats was shaved with a clipper under ether anesthesia, followed by preparing an air pouch by subcutaneous injection of 20 mL of air at the back. On the next day, 1 mL of cottonseed oil containing 1% croton oil was administered to the pouch. Each test drug was suspended in the croton oil-containing cottonseed oil before administration. Seven days later, blood was collected from abdominal aorta under ether anesthesia, and exudate in the pouch was collected and its fluid amount was measured. Further, the thymus was removed, and its weight was measured. The weight of the exudate and the weight of the thymus are shown in Table 2 as the suppression rate and the atrophy rate (%) with respect to those of the control group.

[2] = tested on: croton oil-induced ear edema; assay: Test for croton oil-induced ear edema; assay type: in vivo; conditions: rat right auricle; for Edema suppression rate of 6 hours after administration of inflammatory agent (%): 6 hours after croton oil; for Edema suppression rate of 24 hours after administration of inflammatory agent (%): 24 hours after croton oil
Protocol: Croton oil ear edema test, which is a representative model for dermatitis, was used to study the pharmacological effect of compounds of the present invention.
Five individuals/group of rats of 5 weeks old (body weight, 128 g to 169 g) were used. One day before the test, the thickness of the right ear was measured under ether anesthesia using a dial thickness gauge, to obtain the Pre value. On the day of the test, 20 mg each of the ointments to be tested, which had been prepared to have various concentrations in white vaseline, was applied to the right auricle (both sides) of each rat, and a collar was then placed around the neck of the rat to prevent contacting/scratching and removal of the drug. Two hours later, the ointment was wiped off under ether anesthesia using absorbent cotton, and 0.1 mL of 5% croton oil (croton oil:ether:pyridine:distilled water=1:14:4:1) solution was applied dropwise to the both sides of the auricle while drying the solution with a drier (air blow), to induce ear edema. Six and 24 hours after the induction of the edema, the thickness of the right auricle was measured under ether anesthesia, and the edema rate and the edema suppression rate were calculated according to the equations below, which suppression rate is shown in Table 1.

SMILES	Rate of exudates suppression (pharmacological effects) ([1]; dose 0.001 mg/rat into pouch)	Rate of thymus atrophy (systemic side effects) ([1]; dose 0.001 mg/rat into pouch)	Rate of exudates suppression (pharmacological effects) ([1]; dose 0.01 mg/rat into pouch)	Rate of thymus atrophy (systemic side effects) ([1]; dose 0.01 mg/rat into pouch)	Rate of exudates suppression (pharmacological effects) ([1]; dose 0.1 mg/rat into pouch)	Rate of thymus atrophy (systemic side effects) ([1]; dose 0.1 mg/rat into pouch)	Rate of exudates suppression (pharmacological effects) ([1]; dose 1 mg/rat into pouch)	Rate of thymus atrophy (systemic side effects) ([1]; dose 1 mg/rat into pouch)	Edema suppression rate of 6 hours after administration of inflammatory agent (%) ([2]; ointment concentration 0.001%)	Edema suppression rate of 24 hours after administration of inflammatory agent (%) ([2]; ointment concentration 0.001%)	Edema suppression rate of 6 hours after administration of inflammatory agent (%) ([2]; ointment concentration 0.01%)	Edema suppression rate of 24 hours after administration of inflammatory agent (%) ([2]; ointment concentration 0.01%)	Edema suppression rate of 6 hours after administration of inflammatory agent (%) ([2]; ointment concentration 0.1%)	Edema suppression rate of 24 hours after administration of inflammatory agent (%) ([2]; ointment concentration 0.1%)
CCC(=O)OCC1OC(OCC(=O)C23OC(C4CCCCC4)OC2CC2C4CCC5=CC(=O)C=CC5(C)C4C(O)CC23C)C(OC(=O)CC)C(OC(=O)CC)C1OC(=O)CC (stereo not drawn) [Compound 4]	17.9%	0.0%	44.5%	0.0%	87.0%	0.0%	94.5%	0.0%	30.8%	33.8%	46.3%	70.2%	54.4%	71.7%
CC(=O)OC1C(C)OC(OCC(=O)C23OC(C4CCCCC4)OC2CC2C4CCC5=CC(=O)C=CC5(C)C4C(O)CC23C)C(OC(C)=O)C1OC(C)=O (stereo not drawn) [Compound 10]	4.6%	0.0%	0.0%	0.0%	4.8%	0.0%	5.3%	0.0%	42.4%	45.8%	55.9%	33.2%	38.9%	39.9%
CC(C)C(=O)OCC(=O)[C@@]12O[C@H](C3CCCCC3)O[C@@H]1C[C@H]1[C@@H]3CCC4=CC(=O)C=C[C@]4(C)[C@H]3[C@@H](O)C[C@@]12C [Ciclesonide, ciclesonide, reference compound]	62.8%	6.0%	93.5%	13.0%	93.0%	23.6%	92.6%	84.4%	9.1%	9.4%	30.3%	24.5%	49.4%	43.5%
CC12C=CC(=O)C=C1CCC1C2C(O)CC2(C)C1CC1OC(C3CCCCC3)OC12C(=O)COC1OC(COC=O)C(OC=O)C(OC=O)C1OC=O (stereo not drawn) [Compound 7]	8.7%	2.9%	52.4%	0.0%	59.4%	5.8%	76.8%	19.5%	42.3%	52.0%	49.7%	53.4%	48.5%	53.5%
CC(=O)NC1C(OCC(=O)C23OC(C4CCCCC4)OC2CC2C4CCC5=CC(=O)C=CC5(C)C4C(O)CC23C)OC(COC(C)=O)C(OC(C)=O)C1OC(C)=O (stereo not drawn) [Compound 11]	13.1%	3.9%	21.2%	7.9%	66.0%	10.8%	93.4%	16.0%	24.5%	39.4%	19.0%	26.5%	33.6%	48.0%
CC12C=CC(=O)C=C1CCC1C2C(O)CC2(C)C1CC1OC(C3CCCCC3)OC12C(=O)COC1OC(CO)C(O)C(O)C1O (stereo not drawn) [Compound 2]									13.5%	12.5%	36.8%	38.2%	50.2%	49.5%
CC12C=CC(=O)C=C1CCC1C2C(O)CC2(C)C1CC1OC(C3CCCCC3)OC12C(=O)COC1OC(COC(=O)c2ccco2)C(OC(=O)c2ccco2)C(OC(=O)c2ccco2)C1OC(=O)c1ccco1 (stereo not drawn) [Compound 8]	19.1%	0.0%	42.1%	0.0%	78.0%	0.0%	95.0%	0.5%	24.2%	25.9%	36.0%	40.1%	33.4%	49.6%
CC(=O)OC1C(C)OC(OCC(=O)C23OC(C4CCCCC4)OC2CC2C4CCC5=CC(=O)C=CC5(C)C4C(O)CC23C)C(OC(C)=O)C1OC(C)=O (stereo not drawn) [Compound 9]	10.4%	12.2%	7.3%	10.8%	26.1%	9.4%	58.2%	15.5%	24.6%	17.8%	36.7%	8.6%	23.0%	21.6%
C[C@]12C=CC(=O)C=C1CC[C@@H]1[C@@H]2[C@@H](O)C[C@@]2(C)[C@H]1C[C@H]1O[C@@H](C3CCCCC3)O[C@]12C(=O)CO [desCIC, des-ciclesonide, reference compound]	62.0%	0.0%	74.1%	11.7%	92.7%	22.4%	94.1%	86.4%						
CCCC1O[C@@H]2C[C@H]3[C@@H]4CCC5=CC(=O)C=C[C@]5(C)[C@H]4[C@@H](O)C[C@]3(C)[C@]2(C(=O)CO)O1 (stereo partly drawn) [Budesonide(R), reference compound]	7.6%	15.6%	44.9%	25.8%	88.4%	74.5%	93.0%	90.2%						
